Reference: PMC12274840 (The Journal of Biological Chemistry, 2025)
Values after ≈ are worked out from the molar mass of the structure shown. Like-named read-outs stand apart in the source and are kept apart here.

What was measured:
Type in all cases: cell-based
[1] = system: E. coli KA797 cells carrying pUK21 with KPC-2 (Tat); assay: microbe, parasite or virus in culture; details: Escherichia coli, antibiotic alone
[2] = system: E. coli KA797 cells carrying KPC-2 position 105 library; details: selection with labelled antibiotic
[3] = system: E. coli KA797 cells carrying pUK21 with NmcA (pelB/Sec); assay: microbe, parasite or virus in culture; details: Escherichia coli, antibiotic alone
[4] = system: E. coli KA797 cells carrying pUK21 with BlaC WT (Tat); assay: microbe, parasite or virus in culture; details: Escherichia coli, antibiotic alone
[5] = system: E. coli KA797 cells carrying pUK21 vector without the β-lactamase gene; assay: microbe, parasite or virus in culture; details: Escherichia coli; antibiotic alone; pUK21 without β-lactamase gene; read-out: MIC
[6] = system: E. coli KA797 cells carrying TEM-1 position 105 library; details: for Fi MEM AVG: average of replicates
[7] = KPC-2 AA 105 = Trp (WT, reference)

C[C@@H](O)[C@H]1C(=O)N2C(C(=O)O)=C(S[C@@H]3CN[C@H](C(=O)N(C)C)C3)[C@H](C)[C@H]12 [meropenem]
MIC [1]: 0.4 µg/mL (≈ 1.04 µM) | Fi (relative fitness), Replicate 1 ([2]; KPC-2 AA 105 = Ala): 0.581 | Fi AVG (average fitness of replicates) ([2]; KPC-2 AA 105 = Ala): 0.217 | Fi (relative fitness), Replicate 1 ([2]; KPC-2 AA 105 = Arg): 0.240 | Fi AVG (average fitness of replicates) ([2]; KPC-2 AA 105 = Arg): 0.280 | Significance of average fitness ([2]; KPC-2 AA 105 = Arg): + | Fi (relative fitness), Replicate 1 ([2]; KPC-2 AA 105 = Asn): 0.449 | Fi AVG (average fitness of replicates) ([2]; KPC-2 AA 105 = Asn): 0.201 | Fi (relative fitness), Replicate 1 ([2]; KPC-2 AA 105 = Asp): -0.690 | Fi AVG (average fitness of replicates) ([2]; KPC-2 AA 105 = Asp): -0.489 | Fi (relative fitness), Replicate 1 ([2]; KPC-2 AA 105 = Cys): -0.271 | Fi AVG (average fitness of replicates) ([2]; KPC-2 AA 105 = Cys): -0.750 | Significance of average fitness ([2]; KPC-2 AA 105 = Cys): - | Fi (relative fitness), Replicate 1 ([2]; KPC-2 AA 105 = Gln): -0.624 | Fi AVG (average fitness of replicates) ([2]; KPC-2 AA 105 = Gln): -1.307 | Significance of average fitness ([2]; KPC-2 AA 105 = Gln): - | Fi (relative fitness), Replicate 1 ([2]; KPC-2 AA 105 = Glu): -0.509 | Fi AVG (average fitness of replicates) ([2]; KPC-2 AA 105 = Glu): -0.226 | Fi AVG (average fitness of replicates) ([2]; KPC-2 AA 105 = Gly): -0.037 | Fi (relative fitness), Replicate 1 ([2]; KPC-2 AA 105 = His): -1.077 | Fi AVG (average fitness of replicates) ([2]; KPC-2 AA 105 = His): -0.525 | Fi (relative fitness), Replicate 1 ([2]; KPC-2 AA 105 = Ile): 0.107 | Fi AVG (average fitness of replicates) ([2]; KPC-2 AA 105 = Ile): 0.391 | Significance of average fitness ([2]; KPC-2 AA 105 = Ile): + | Fi (relative fitness), Replicate 1 ([2]; KPC-2 AA 105 = Leu): -0.731 | Fi AVG (average fitness of replicates) ([2]; KPC-2 AA 105 = Leu): -0.210 | Fi (relative fitness), Replicate 1 ([2]; KPC-2 AA 105 = Lys): 0.268 | Fi AVG (average fitness of replicates) ([2]; KPC-2 AA 105 = Lys): -0.089 | Fi (relative fitness), Replicate 1 ([2]; KPC-2 AA 105 = Met): -1.083 | Fi AVG (average fitness of replicates) ([2]; KPC-2 AA 105 = Met): -0.791 | Fi (relative fitness), Replicate 1 ([2]; KPC-2 AA 105 = Phe): -0.159 | Fi AVG (average fitness of replicates) ([2]; KPC-2 AA 105 = Phe): 0.248 | Fi (relative fitness), Replicate 1 ([2]; KPC-2 AA 105 = Pro): -0.148 | Fi AVG (average fitness of replicates) ([2]; KPC-2 AA 105 = Pro): -1.195 | Significance of average fitness ([2]; KPC-2 AA 105 = Pro): - | Fi (relative fitness), Replicate 1 ([2]; KPC-2 AA 105 = Ser): 0.279 | Fi AVG (average fitness of replicates) ([2]; KPC-2 AA 105 = Ser): -0.239 | Fi AVG (average fitness of replicates) ([2]; KPC-2 AA 105 = Thr): -0.051 | Fi (relative fitness), Replicate 1 [2, 7]: 0.000 | Fi AVG (average fitness of replicates) [2, 7]: 0.000 | Fi (relative fitness), Replicate 1 ([2]; KPC-2 AA 105 = Tyr): 0.109 | Fi AVG (average fitness of replicates) ([2]; KPC-2 AA 105 = Tyr): -0.474 | Fi (relative fitness), Replicate 1 ([2]; KPC-2 AA 105 = Val): -1.754 | Fi AVG (average fitness of replicates) ([2]; KPC-2 AA 105 = Val): -0.973 | WT abs Fi 1 (absolute fitness) ([2]; KPC-2 WT (Trp 105), replicate 1): 0.081 | WT abs Fi 2 (absolute fitness) ([2]; KPC-2 WT (Trp 105), replicate 2): -0.069 | WT abs Fi 3 (absolute fitness) ([2]; KPC-2 WT (Trp 105), replicate 3): 0.298 | MIC [3]: 1.6 µg/mL (≈ 4.17 µM) | MIC [4]: 0.1 µg/mL (≈ 0.261 µM) | MIC [5]: 0.05 µg/mL (≈ 0.13 µM) | Fi MEM AVG ([6]; AA 105 Ala): 0.062 | Fi MEM 1 ([6]; AA 105 Ala, replicate 1): 0.046 | Fi MEM 2 ([6]; AA 105 Ala, replicate 2): 0.488 | Fi MEM 3 ([6]; AA 105 Ala, replicate 3): -0.350 | Fi MEM AVG ([6]; AA 105 Arg): 0.048 | Fi MEM 1 ([6]; AA 105 Arg, replicate 1): 0.163 | Fi MEM 2 ([6]; AA 105 Arg, replicate 2): 0.269 | Fi MEM 3 ([6]; AA 105 Arg, replicate 3): -0.287 | Fi MEM AVG ([6]; AA 105 Asn): -0.031 | Fi MEM 1 ([6]; AA 105 Asn, replicate 1): -0.022 | Fi MEM 2 ([6]; AA 105 Asn, replicate 2): 0.493 | Fi MEM 3 ([6]; AA 105 Asn, replicate 3): -0.563 | Fi MEM AVG ([6]; AA 105 Asp): -0.366 | Fi MEM 1 ([6]; AA 105 Asp, replicate 1): -1.030 | Fi MEM 2 ([6]; AA 105 Asp, replicate 2): 0.356 | Fi MEM 3 ([6]; AA 105 Asp, replicate 3): -0.424 | Fi MEM AVG ([6]; AA 105 Cys): 0.031 | Fi MEM 1 ([6]; AA 105 Cys, replicate 1): 0.333 | Fi MEM 2 ([6]; AA 105 Cys, replicate 2): 0.230 | Fi MEM 3 ([6]; AA 105 Cys, replicate 3): -0.470 | Fi MEM AVG ([6]; AA 105 Gln): -0.069 | Fi MEM 1 ([6]; AA 105 Gln, replicate 1): -0.210 | Fi MEM 2 ([6]; AA 105 Gln, replicate 2): 0.084 | Fi MEM 3 ([6]; AA 105 Gln, replicate 3): -0.080 | Fi MEM AVG ([6]; AA 105 Glu): -0.063 | Fi MEM 1 ([6]; AA 105 Glu, replicate 1): -0.084 | Fi MEM 2 ([6]; AA 105 Glu, replicate 2): 0.140 | Fi MEM 3 ([6]; AA 105 Glu, replicate 3): -0.245 | Fi MEM AVG ([6]; AA 105 Gly): -0.130 | Fi MEM 1 ([6]; AA 105 Gly, replicate 1): -0.195 | Fi MEM 2 ([6]; AA 105 Gly, replicate 2): 0.032 | Fi MEM 3 ([6]; AA 105 Gly, replicate 3): -0.226 | Fi MEM AVG ([6]; AA 105 His): -0.172 | Fi MEM 1 ([6]; AA 105 His, replicate 1): -0.391 | Fi MEM 2 ([6]; AA 105 His, replicate 2): 0.351 | Fi MEM 3 ([6]; AA 105 His, replicate 3): -0.475 | Fi MEM AVG ([6]; AA 105 Ile): 0.078 | Fi MEM 1 ([6]; AA 105 Ile, replicate 1): 0.231 | Fi MEM 2 ([6]; AA 105 Ile, replicate 2): 0.143 | Fi MEM 3 ([6]; AA 105 Ile, replicate 3): -0.140 | Fi MEM AVG ([6]; AA 105 Leu): -0.036 | Fi MEM 1 ([6]; AA 105 Leu, replicate 1): -0.102 | Fi MEM 2 ([6]; AA 105 Leu, replicate 2): 0.170 | Fi MEM 3 ([6]; AA 105 Leu, replicate 3): -0.177 | Fi MEM AVG ([6]; AA 105 Lys): -0.052 | Fi MEM 1 ([6]; AA 105 Lys, replicate 1): -0.122 | Fi MEM 2 ([6]; AA 105 Lys, replicate 2): 0.122 | Fi MEM 3 ([6]; AA 105 Lys, replicate 3): -0.155 | Fi MEM AVG ([6]; AA 105 Met): -0.379 | Fi MEM 1 ([6]; AA 105 Met, replicate 1): -0.840 | Fi MEM 2 ([6]; AA 105 Met, replicate 2): 0.139 | Fi MEM 3 ([6]; AA 105 Met, replicate 3): -0.436 | Fi MEM AVG ([6]; AA 105 Phe): -0.175 | Fi MEM 1 ([6]; AA 105 Phe, replicate 1): 0.171 | Fi MEM 2 ([6]; AA 105 Phe, replicate 2): -0.315 | Fi MEM 3 ([6]; AA 105 Phe, replicate 3): -0.381 | Fi MEM AVG ([6]; AA 105 Pro): -0.026 | Fi MEM 1 ([6]; AA 105 Pro, replicate 1): 0.015 | Fi MEM 2 ([6]; AA 105 Pro, replicate 2): 0.091 | Fi MEM 3 ([6]; AA 105 Pro, replicate 3): -0.184 | Fi MEM AVG ([6]; AA 105 Ser): -0.010 | Fi MEM 1 ([6]; AA 105 Ser, replicate 1): 0.139 | Fi MEM 2 ([6]; AA 105 Ser, replicate 2): 0.033 | Fi MEM 3 ([6]; AA 105 Ser, replicate 3): -0.203 | Fi MEM AVG ([6]; AA 105 Thr): -0.084 | Fi MEM 1 ([6]; AA 105 Thr, replicate 1): -0.289 | Fi MEM 2 ([6]; AA 105 Thr, replicate 2): 0.235 | Fi MEM 3 ([6]; AA 105 Thr, replicate 3): -0.199 | Fi MEM AVG ([6]; AA 105 Trp): -0.176 | Fi MEM 1 ([6]; AA 105 Trp, replicate 1): -0.657 | Fi MEM 2 ([6]; AA 105 Trp, replicate 2): 0.184 | Fi MEM 3 ([6]; AA 105 Trp, replicate 3): -0.056 | Fi MEM AVG ([6]; AA 105 Tyr): 0.000 | Fi MEM 1 ([6]; AA 105 Tyr, replicate 1): 0.000 | Fi MEM 2 ([6]; AA 105 Tyr, replicate 2): 0.000 | Fi MEM 3 ([6]; AA 105 Tyr, replicate 3): 0.000 | Fi MEM AVG ([6]; AA 105 Val): -0.088 | Fi MEM 1 ([6]; AA 105 Val, replicate 1): -0.115 | Fi MEM 2 ([6]; AA 105 Val, replicate 2): 0.193 | Fi MEM 3 ([6]; AA 105 Val, replicate 3): -0.342 | WT abs Fi 1 ([6]; absolute fitness of TEM-1 WT, MEM, replicate 1): 0.006 | WT abs Fi 2 ([6]; absolute fitness of TEM-1 WT, MEM, replicate 2): -0.204 | WT abs Fi 3 ([6]; absolute fitness of TEM-1 WT, MEM, replicate 3): 0.439
